In patent US7067533B2, “Aminophenoxyacetamide derivatives and pharmaceutical composition containing thereof” (Daiichi Asubio Pharma Co., Ltd., priority 2000, dated 2006):

How the values were obtained:
[1] = test system: primary cultures (neurons) from cerebral cortices of fetal Wistar rats; experiment: Biological Test 1: neuroprotective effect against glutamate induced neuronal cell death (MTT); type: cell-based, rat; details: Compound: 1 μM; glutamate 1 mM; control group = 100%
Procedure: Cultures were maintained at 37 C. in a 90% air/10% CO2 humidified incubator. Glutamate was added to the culture at day 4 to the final concentration of 1 mM. […] MTT was dissolved in phosphate buffered saline (PBS, pH 7.4) at 5 mg/ml and filtered to sterilize and remove a small amount of insoluble residue present in some batches of MTT, and added to the cultures at a final concentration of 0.5 mg/ml.
The test compounds (1 μM) was added 24 hrs prior to glutamate treatment and simultaneously with glutamate.
Survival rate of living cells (%) =[(test compound group—glutamic acid treated group)÷(control group—glutamic acid treated group)]×100

[2] = test system: primary cultures (neurons) from cerebral cortices of fetal Wistar rats; experiment: Biological Test 2: antagonism of the neuroprotective effect by MTA treatment (MTT); type: cell-based, rat; details: 0.75 mM MTA added 30 minutes before test compound, glutamate
Procedure: This biological test is performed to determine whether the neuroprotective effect of the test compounds is due to the activation of receptors of physiological active substances or not, by using antagonistic test for neutralizing antibody and Inhibitor for FGF, NT-3, NT-4/5, BDNF, IGF-I/II, NGF, PDGF and estrogen, respectively.
Chem., 268, 4244 (1993)]. Therefore, the neuroprotective effect of the test compounds is inhibited by treatment of MTA, this effect is depended by the signal transfer effect through the phosphorylation of FGF receptor.
The inhibitors of the various kinds of receptor were dissolved in the optimum concentration, and MTA was dissolved in the concentration of 7.5 mM, just before the using. 30 minutes before the treatment of the test compounds, the optimum concentration of each inhibitors or 0.75 mM of MTA was added, and the neuroprotective effect of the test compounds was determined by mean of MTT method.

[3] = test system: cerebral edema (water content of cerebral hemisphere), Wistar rats; experiment: Biological Test 5: cerebral edema suppressing effect; type: in vivo; details: iv, 144 h, rat, post-TBI day 6, read-out: Cerebral edema suppressing rate (%); for inhibition in vivo at 1 mg/kg: 1 mg/kg intravenously just after the operation; for inhibition in vivo at 3 mg/kg: 3 mg/kg intravenously just after the operation
Procedure: Adult male Wistar rats weighing 210–230 g were used in the present study and housed in an artificially controlled environment with 12-hour light/dark cycle. Animals were anesthetized with pentobarbital sodium (50 mg/kg of body weight, i.p., Nembutal, Dinabbott, Japan) and placed in a stereotaxic apparatus. The skull was exposed and a hole was made on the parietal bone; 1.5 mm posterior and 0.8 mm lateral to the bregma. All procedures were performed under a surgery microscope to avoid excess irritation to the meninges and the underlying brain. A brass screw with a blunt tip (1.0 mm in diameter and 3.0 mm in length, Biomedica, Japan) was inset in the hole. The screw tip protruding intracranially was approximately 2.5 mm, which stuck into the parietal part of the right cerebrum through the meninges. In sham-operated rats, scalp was closed without attaching a screw to the hole. After surgery, all rats were kept in their original dens until sacrifice. Rats were allowed to feed chow and water ad libitum.
Under anesthesia the rat cerebral hemispheres of the target were processed for water content on post-TBI day 6 (n=6). The cerebral hemispheres dissected out were weighed, dried for 24 hours at 110 degree (Celsius) and then weighed again. The subtracted amount of the wet and dry weights was regarded as tissue water of the target, and utilized for the analysis of the cerebral edema.
The water content was calculated by using the following formula:
Water content (%) =[(wet weight of hemisphere—dry weight of hemisphere)/wet weight of hemisphere]×100
The test compounds were intravenously administered just after the operation via tail vein of the rats.

[4] = test system: CalbindinD-28k; experiment: Biological Test 3: CalbindinD-28k inducing effect (western blot); type: cell-based, rat; details: control (none-treated) = 100
Procedure: Test compounds were added 5 days after initiation of the incubation, and after 7 days of incubation, the protein was extracted with homogenized buffer solution [containing 20 mm of Tris-HCl (pH=7.4), 1 mM of EDTA, and 0.1 mM of phenylmethyl-sulfonyl fluoride].
In the table, the amount of induced CalbindinD-28k of the control group (none-treated group) was 4indicated as 100 percents.

[5] = test system: primary cultures (neurons) from cerebral cortices of fetal Wistar rats; experiment: Biological Test 4: neuroprotective inhibiting effect by calbindin antisense oligonucleotide (MTT); type: cell-based, rat; details: 300 μM glutamic acid

## Cc1c(C)c(OC(C)C(=O)N(C)C2CCN(CCN3CCOCC3)CC2)c(C)c(C)c1N (centres unmarked) [Compound 25, 2-(4-Amino-2,3,5,6-tetramethylphenoxy)-N-methy-N-{1-[2-(4-morpholinyl)ethyl]-4-piperidinyl}proanamide]
[1]
  Survival Rate (%) (Compound: 1 μl): 87%
[2]
  Survival Rate (%) (Compound: 1 μl & MTA treatment): 16%
[3]
  inhibition in vivo at 1 mg/kg: 19.1%

## Cc1c(C)c(OCC(=O)N(C)C2CCN(Cc3ccc(C#N)cc3)CC2)c(C)c(C)c1N [Compound 18, 2-(4-Amino-2,3,5,6-tetramethylphenoxy)-N-[1-(4-cyano-benzyl)-4-piperidinyl]-N-methylacetamide]
[1]
  Survival Rate (%) (Compound: 1 μl): 91%
[2]
  Survival Rate (%) (Compound: 1 μl & MTA treatment): 57%
[3]
  inhibition in vivo at 1 mg/kg: 22.1%

## CCCCN1CCC(N(C)C(=O)C(C)Oc2c(C)c(C)c(N)c(C)c2C)CC1 (centres unmarked) [Compound 24, 2-(4-Amino-2,3,5,6-tetramethylphenoxy)-N-(1-butyl-4-piperidinyl)-N-methylpropanamide]
[1]
  Survival Rate (%) (Compound: 1 μl): 61%
[2]
  Survival Rate (%) (Compound: 1 μl & MTA treatment): 22%
[3]
  inhibition in vivo at 1 mg/kg: 10.6%

## Cc1c(C)c(OCC(=O)N(C)C2CCN(C(=O)c3ccccc3)CC2)c(C)c(C)c1N [Compound 8, 2-(4-Amino-2,3,5,6-tetramethylphenoxy)-N-(1-benzoyl-4-piperidinyl)-N-methylacetamide]
[1]
  Survival Rate (%) (Compound: 1 μl): 78%
[2]
  Survival Rate (%) (Compound: 1 μl & MTA treatment): 24%
[3]
  inhibition in vivo at 1 mg/kg: 14%

## Cc1c(C)c(OCC(=O)N(C)C2CCN(CCc3ccccc3)CC2)c(C)c(C)c1N [Compound 6, 2-(4-Amino-2,3,5,6-tetramethylphenoxy)-N-methyl-N-(1-phenethyl-4-piperidinyl)acetamide]
[1]
  Survival Rate (%) (Compound: 1 μl): 54%
[2]
  Survival Rate (%) (Compound: 1 μl & MTA treatment): 25%
[4]
  Amount of induced CalbindineD-28k (% vs. control) (Compound: 1 μM): 163 % vs. control
[5]; 0.1 μM
  Survival Rate (%) [antisense (+): 5 μM]: 30%
  Survival Rate (%) [antisense (−)]: 103%
[5]; 1 μM
  Survival Rate (%) [antisense (+): 5 μM]: 34%
  Survival Rate (%) [antisense (−)]: 108%
[3]
  inhibition in vivo at 3 mg/kg: 24.9%

## Cc1c(C)c(OCC(=O)N(C)C2CCN(CC3CC3)CC2)c(C)c(C)c1N [Compound 12, 2-(4-Amino-2,3,5,6-tetramethylphenoxy)-N-(1-cyclo-propylmethyl-4-piperidinyl)-N-methylacetamide]
[1]
  Survival Rate (%) (Compound: 1 μl): 54%
[2]
  Survival Rate (%) (Compound: 1 μl & MTA treatment): 33%
[3]
  inhibition in vivo at 3 mg/kg: 14.7%

## Cc1c(C)c(OCC(=O)N(C)C2CCN(C[C@@H]3C[C@H]3c3ccccc3)CC2)c(C)c(C)c1N (relative stereo) [Compound 13, 2-(4-Amino-2,3,5,6-tetramethylphenoxy)-N-methyl-N-[1-(trans-2-phenyl-1-cyclopropylmethyl)-4-piperidinyl]acetamide]
[1]
  Survival Rate (%) (Compound: 1 μl): 65%
[2]
  Survival Rate (%) (Compound: 1 μl & MTA treatment): 13%
[3]
  inhibition in vivo at 3 mg/kg: 13.1%
